Laboratory results: patent publication US4031239A, “Cyclopropanecarboxylates for systemic control of ectoparasites” (American Cyanamid Company, priority 1975, dated 1977)

Assays:
[1] = system: Rhipicephalus sanguineus; experiment: Systemic ixodicidal activity, daily oral dosing of tick-infested guinea pigs (Example 1); format: in vivo
From the text: (§1) Albino guinea pigs are housed individually and fed guinea pig chow and water ad libitum. One leaf of cabbage per day is also given to each guinea pig.
The diet employed in these tests is as follows:
Crude protein not less than 18.0%
Crude fat not less than 4.0%
Crude fiber not more than 16.0%
Added minerals not more than 3.5%
and consists of the following ingredients: Ground wheat, ground yellow corn, dried skimmed milk, soybean meal, dehydrated alfalfa meal, cane molasses, wheat middlings, animal fat preserved with BHA, vitamin B12 supplement; riboflavin supplement, cholin chloride, calcium pantothenate, thiamin, niacin, folic acid, ascorbic acid, vitamin A supplement, D activated sterol (source of Vitamin D3), methionine hydroxy analogue calcium, pyridoxine hydrochloride, vitamin E supplement, dicalcium phosphate, calcium carbonate, iodized salt, copper oxide sulfate, iron sulfate, iron oxide, manganous oxide, cobalt carbonate, zinc oxide.
(§2) To the shaved back of each guinea pig, a capsule made from a 2 inch spud gasket, with the base ground down to provide greater flexibility, is glued using 3M adhesive no. 8001. Five male and five female adult Rhipicephalus sanguineus ticks are placed inside the capsule and allowed to attach to the guinea pig. A gauze material is fastened over the top of the gasket to prevent the ticks from escaping.
(§3) The guinea pigs are given a daily oral dose by gelatin capsule of either 400 or 100 mg per kilogram body weight of the test compound. […]

[2] = system: Stomoxys calcitrans; experiment: Animal systemic insecticidal activity, flies fed on mice dosed by gavage (Example 3); format: in vivo, Stomoxys calcitrans (stable flies) fed on mice; conditions: 18 hours feeding, mortality at 24 hours
Method: To determine the effectiveness of the compounds of the invention as animal systemic insecticidal agents, test compounds are mixed in 10% acetone-90% sesame oil and administered by gavage to mice each at 25, 100 and/or 400 mg/kg of animal body weight.
Adult, one day old, unfed flies Stomoxys calcitrans are then exposed to the mice for 18 hours to permit them to feed on said mice. Mortality counts are made at 24 hours and data obtained are reported below as percent control of stable flies.

[3] = system: Rhipicephalus sanguineus; Dermacentor variabilis; experiment: Systemic ixodicidal activity by the methods of the Examples, stated for both tick species together; format: in vivo; conditions: trans and cis; no figures given
From the text: as §1, §2, §3

[4] = system: Dermacentor variabilis; experiment: Systemic ixodicidal activity, daily oral dosing of tick-infested guinea pigs (Example 2); format: in vivo
[5] = Rhipicephalus sanguineus, in Cavia porcellus, po, read-out: % Tick Mortality

| Structure (SMILES) | % Control of Stable Flies ([2]; 25 mg/kg by gavage) [%] | % Control of Stable Flies ([2]; 100 mg/kg by gavage) [%] | % Control of Stable Flies ([2]; 400 mg/kg by gavage) [%] | further results |
| --- | --- | --- | --- | --- |
| CC1(C)C(C=C(Cl)Cl)C1C(=O)OCc1cccc(Oc2ccccc2)c1 (mixture of isomers) [Cyclopropanecarboxylic acid, 3-(2,2-dichlorovinyl)-2,2-dimethyl-m-phenoxybenzyl ester] | – | – | – | mortality at 100 mg/kg [1, 5]: 80%; mortality at 400 mg/kg [1, 5]: 100%; time after initial treatment during which ticks do not appear to be affected (then moribund and die shortly thereafter) ([1]; daily oral dose 400 or 100 mg/kg, guinea pigs, slight color changes and some reduction in size excepted): about 3 days |
| CC1(C)C(C=C(Cl)Cl)C1C(=O)OC(C#N)c1cccc(Oc2ccccc2)c1 (stereo not shown) | 63 | 80 | 96 | – |
| CC1(C)C(C=C(Cl)Cl)C1C(=O)OCc1cccc(Oc2ccccc2)c1 (stereo not shown) [drawing 8] | 36 | 100 | – | – |
| CC(C)=CC1C(C(=O)OCc2cccc(Oc3ccccc3)c2)C1(C)C (stereo not shown) [cyclopropanecarboxylic acid, 2,2-dimethyl-3-(2-methylpropenyl)-m-phenoxybenzyl ester] | – | – | – | ixodicidal results compared with those in the Examples [3]: Results comparable to those in the Examples |
| CC1(C)C(C=C(Cl)Cl)C1C(=O)OCc1cccc(Oc2ccccc2)c1 (stereo not shown) [Cyclopropanecarboxylic acid, 3-(2,2-dichlorovinyl)-2,2-dimethyl-, m-phenoxybenzyl ester] | – | – | – | susceptibility of ticks to the test compound ([4]; Dermacentor variabilis, compared with Example 1 (Rhipicephalus sanguineus)): somewhat less susceptible; mortality at 100 mg/kg ([4]; Dermacentor variabilis, in Cavia porcellus, daily oral dose 100 mg/kg, guinea pigs): 0%; mortality at 400 mg/kg ([4]; Dermacentor variabilis, in Cavia porcellus, daily oral dose 400 mg/kg, guinea pigs): 80%; time after which ticks become moribund and die shortly thereafter ([4]; method of Example 1, daily oral dose, guinea pigs): about 5 days |
| CC(C)=CC1C(C(=O)OC(C#N)c2cccc(Oc3ccccc3)c2)C1(C)C (stereo not shown) | 30 | 80 | 100 | – |
